# Laboratory results reported in patent US6338963B1, “Use of carbon monoxide dependent guanylyl cyclase modifiers to stimulate neuritogenesis” (NeoTherapeutics, Inc., priority 1994, dated 2002).
# No end group written: not given here.
# Tested on: PC12 cells
# Experiment: Neuritogenesis in PC12 cells
# Format: cell-based, rat
# Details: for neurite outgrowth in the absence of NGF: compound alone; for enhancement of NGF-induced neurite outgrowth: in the presence of NGF, 48 hours; for effect of inhibitor on NGF neuritogenic activity / effect on neuritogenic properties of the NO donors: PC12 cells with NGF; for effect of inhibitor on neuritogenic effects of guanosine: PC12 cells with guanosine and NGF
# Description: Much of the work performed in the characterization of the compounds of the present invention involved the use of PC12 cells. These cells are derived from a rat pheochromocytoma and when grown in the presence of NGF, extend neurites, cease cell division and assume many characteristics of sympathetic neurons. When cultured in the absence of nerve growth factor (NGF), few PC12 cells have neurites greater than one cell diameter. Addition of saturating concentrations of NGF for 48 hours stimulates neurite outgrowth in about 20-35% of the cells. Because they constitute a homogeneous population of neuronal-like cells, without contaminating astroglia type cells, it is possible to study the direct effects of the purine based compounds on neurite outgrowth in these cells.
# Cells cultured in RPMI 1640 with 1.5% horse serum and 1.5% fetal bovine serum were re-plated onto poly-ornithine coated 24-well culture plates (2.5×10^4 cells per well). AIT-082 and NGF were added to the various cultures immediately upon plating. After 48 hours, medium was removed and the cells irnmediately fixed in 10% formalin and PBS for 10 minutes. Cells and neurites were counted within 2 days of fixation.
# A neurite was defined as a process extending from the cell at least 1 cell body diameter in length and displaying a growth cone at its tip. For each treatment, 2 representative microscope fields were counted from each of 6 sister cultures receiving identical treatments. The total number of cells counted per well (approximately 100 cells) and the total number of cells containing neurites in each well were used to determine fraction of neurite-bearing cells. The mean values (±SEM) were then determined for each of the treatments. To facilitate comparison neurite outgrowth was expressed relative to the proportion of cells bearing neurites in the presence of NGF alone (NGF=100%). The effects of compounds with and without NGF were compared by analysis of variance (ANOVA) followed by Tukey's test for significance.
# The results are shown in FIG. 3 where the curve represents different levels of AIT-082 plus saturating concentrations (40 ng/ml) NGF. The center horizontal line represents control values for cells cultured in the presence of 40 ng/ml NGF alone. Upper and lower horizontal lines are indicative of confidence limits of NGF alone as determined using standard statistical methods.
compound,measurement,setting,value
Nc1ncnc2c1ncn2[C@@H]1O[C@H](CO)[C@@H](O)[C@H]1O [adenosine],modification of neural activity,,relatively ineffective
same,neurite outgrowth in the absence of NGF,,slightly increased the proportion of cells with neurites
same,enhancement of NGF-induced neurite outgrowth,,did not enhance NGF induced neurite outgrowth at any concentration
"O=C(CCn1cnc2c(=O)[nH]cnc21)NCCCN1CCCC1=O [AIT-034, 3-(1,6 dihydro-6-oxo-9hpurin-9-yl)-N-(3-(2-oxopyrrolidin-1-yl)propyl) propanamide]",modification of neural activity,,failed to modify neural activity
same,enhancement of NGF-induced neurite outgrowth,,did not enhance NGF-induced neuritogenesis
"Nc1nc2c(ncn2[C@@H]2O[C@H](COP(=O)(O)OP(=O)(O)O)[C@@H](O)[C@H]2O)c(=O)[nH]1 [GDP, guanosine diphosphate]",enhancement of NGF-induced neurite outgrowth,,neither GDP nor GMP were effective alone or with NGF
O=c1[nH]c(=O)c2[nH]cnc2[nH]1 [xanthine],modification of neural activity,,relatively ineffective
same,concentration toxic to the cells,PC12 cells,300000 µM
same,enhancement of NGF-induced neurite outgrowth,,only slightly enhanced NGF-induced neurite outgrowth
C=CC1=C(C)c2cc3[n-]c(cc4[n-]c(cc5nc(cc1n2)C(C)=C5C=C)c(C)c4CCC(=O)O)c(CCC(=O)O)c3C.[Zn+2] [Zinc protoporphyrin IX],effect of inhibitor on neuritogenic action of AIT-082,PC12 cells,inhibited the action of AIT-082
same,effect of inhibitor on NGF neuritogenic activity,,no effect on NGF activity
same,effect of inhibitor on NGF neuritogenic activity,listed as ZnPP,did not affect those of NGF
same,effect of inhibitor on neuritogenic effects of guanosine,,abolished the neuritogenic effects of guanosine
"ANF: atrial natriuretic factor, a hormone activating particulate guanylyl cyclase (SLRRSSCFGGRMDRIGAQSGLGCNSFRY; ends and bridges not checked; cysteine pairing not given here; UniProt P01160 124-151, looked up)",enhancement of NGF-induced neurite outgrowth,,enhanced NGF-stimulated neurite outgrowth
CCCn1cnc2c1c(=O)n(CCCCC(C)=O)c(=O)n2C [propentofylline],modification of neural activity,,failed to modify neural activity
OC[C@H]1O[C@@H](n2cnc3c(O)ncnc32)[C@H](O)[C@@H]1O [inosine],modification of neural activity,,relatively ineffective
same,stimulation of neuritogenesis and enhancement of NGF-stimulated neuritogenesis,PC12 cells,weakly effective
same,enhancement of NGF-induced neurite outgrowth,,only slightly enhanced neurite outgrowth
copper protoporphyrin IX [CuPP],effect of inhibitor on neuritogenic effects of guanosine,,did not reduce the ability of guanosine to enhance NGF-dependent neurite outgrowth
O=C1C(Nc2ccccc2)=CC(=O)c2ncccc21 [LY83583],effect of inhibitor on NGF neuritogenic activity,,the response elicited by NGF was unaffected
same,effect of inhibitor on neuritogenic effects of guanosine,,inhibited
O=c1[nH]cnc2nc[nH]c12 [hypoxanthine],modification of neural activity,,relatively ineffective
same,stimulation of neuritogenesis and enhancement of NGF-stimulated neuritogenesis,PC12 cells,weakly effective
same,enhancement of NGF-induced neurite outgrowth,,"the greatest, although still modest, enhancement"
"Nc1ncnc2c1ncn2[C@@H]1O[C@H](COP(=O)(O)OP(=O)(O)OP(=O)(O)O)[C@@H](O)[C@H]1O [ATP, adenosine triphosphate]",neurite outgrowth in the absence of NGF,,did not enhance neuritogenesis
same,enhancement of NGF-induced neurite outgrowth,,did not enhance neuritogenesis
"CCOC(=O)CCn1cnc2c(N)ncnc21 [AIT-0026, 3-(6-amino-9H-purin-9-yl)propionic acid, ethyl ester]",modification of neural activity,,failed to modify neural activity
CN(C)c1ccc2nc3ccc(=[N+](C)C)cc-3sc2c1 [Methylene blue],effect of inhibitor on neuritogenic action of AIT-082,PC12 cells,inhibited the action of AIT-082
same,effect of inhibitor on NGF neuritogenic activity,,no effect on NGF activity
same,effect of inhibitor on NGF neuritogenic activity,listed as MB,no effect on NGF-stimulated neurite outgrowth
same,effect of inhibitor on neuritogenic effects of guanosine,,abolished the synergistic effects of guanosine with NGF
"Nc1nc2c(ncn2[C@@H]2O[C@H](COP(=O)(O)O)[C@@H](O)[C@H]2O)c(=O)[nH]1 [GMP, guanosine monophosphate]",enhancement of NGF-induced neurite outgrowth,,neither GDP nor GMP were effective alone or with NGF
hemoglobin,effect of inhibitor on neuritogenic action of AIT-082,PC12 cells,inhibited
same,effect on neuritogenic properties of the NO donors,,inhibited
same,effect of inhibitor on neuritogenic effects of guanosine,,inhibited the neuritogenic effects of guanosine
"CCNC(=O)[C@H]1O[C@@H](n2cnc3c(N)ncnc32)[C@H](O)[C@@H]1O [NECA, 5′-N-ethylcarboxamidoadenosine]",neurite outgrowth in the absence of NGF,,little stimulation of neurite outgrowth
same,effect on the actions of guanosine,in the presence and absence of NGF,could synergistically enhance the actions of guanosine
same,enhancement of NGF-induced neurite outgrowth,,"also enhanced neuritogenesis, but not to the same extent as guanosine"
Methemoglobin: captures and removes nitric oxide (NO) and carbon monoxide (CO) from the culture media,effect of inhibitor on neuritogenic action of AIT-082,PC12 cells,inhibited the action of AIT-082
same,effect of inhibitor on NGF neuritogenic activity,,no effect on NGF activity
same,effect on neuritogenic properties of the NO donors,,inhibited
"O=NO [SN, sodium nitrite]",neurite outgrowth in the absence of NGF,,neither SNP nor SN elicited neurite outgrowth
same,enhancement of NGF-induced neurite outgrowth,,enhanced NGF-mediated neurite outgrowth in a synergistic manner
